Data published in PubChem BioAssay AID2768 (The Scripps Research Institute Molecular Screening Center, 2010).

These compounds were tested against metallo-beta-lactamase IMP-1 (Pseudomonas aeruginosa) (UniProt Q79MP6) (assay: IMP-1 metallo-beta-lactamase inhibitor potency, late-stage follow-up, biochemical, epi-absorbance, dose response (AID 2768)). Settings: purified IMP-1, absorbance substrate hydrolysis.
metallo-beta-lactamase IMP-1 (Pseudomonas aeruginosa), sequence (Q79MP6 1-246): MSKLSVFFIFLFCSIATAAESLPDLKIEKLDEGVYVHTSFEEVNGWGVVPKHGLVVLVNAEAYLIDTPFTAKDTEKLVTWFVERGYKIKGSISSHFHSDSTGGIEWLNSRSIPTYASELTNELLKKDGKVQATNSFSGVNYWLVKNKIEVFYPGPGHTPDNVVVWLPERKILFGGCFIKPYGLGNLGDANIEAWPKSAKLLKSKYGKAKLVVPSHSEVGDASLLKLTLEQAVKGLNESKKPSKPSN

In order of rising IC50:
1. O=C(O)c1ccc[c]([Hg+])c1  1330 nM
2. [Hg+][c]1ccccc1  1510 nM
3. Cc1cc[c]([Hg+])cc1  1810 nM
4. COc1cccc[c]1[Hg+]  2330 nM
5. CC(=O)Nc1cc[c]([Hg+])cc1  3740 nM
6. O=C(O)c1cc[c]([Hg][Cl])cc1  8700 nM
